What was measured:
[1] = system: melatonin concentration in the plasma; assay: Evaluation of melatonin secretion promoting effect (plasma melatonin, 24-week oral ingestion); assay type: in vivo, human; conditions: for melatonin concentration in the plasma, 0 weeks (before ingestion): baseline; for melatonin concentration in the plasma, 0 weeks (before ingestion) / melatonin concentration in the plasma, 24 weeks (after ingestion) / melatonin concentration in the plasma, Change rate (24 weeks - 0 weeks): mean±SD
Procedure: In order to confirm a change in the melatonin quantity before and after ingestion of the nicotinamide mononucleotide, a test was conducted on healthy males and females aged 50 to 70 years.
As a sample of Working Example 1, a capsule formulation containing the nicotinamide mononucleotide and starch (100 mg (low dose) and 200 mg (high dose) of the nicotinamide mononucleotide in 4 capsules) (manufactured by SHINKOWA PHARMACEUTICAL Co., Ltd.) was used.
(§1) Each group consisting of five healthy males and females aged 50 to 70 years in an unbiased age group ingested the above low dose capsule formulation once a day by 4 capsules for 24 weeks (total 10 subjects, a low dose group: 100 mg/daily ingestion). On the other hand, each group consisting of five healthy males and females aged 50 to 70 years in the unbiased age group ingested the above high dose capsule formulation once a day by 4 capsules for 24 weeks (total 10 subjects, a high dose group: 200 mg/daily ingestion). In order to conduct appropriate evaluations, those who had been regularly using medical products for chronic diseases, those who had been consuming healthy foods that may affect clinical research, and those who were currently participating in other clinical researches or clinical trials, or had participated in other clinical researches or clinical trials within the last three months were excluded from the subject for the evaluation. The capsule formulations were ingested at 10 am (between meals and fasting state) together with water or lukewarm water (oral administration).
Measurement of the melatonin quantity in plasma was conducted by requesting the measurement to an external public organization according to a usual method. FIGS. 2a to 2c indicates transitions of the melatonin concentration (pg/ml) in the plasma for 24 weeks. FIG. 2a represents the transitions of the whole subjects; FIG. 2b represents the transitions of the male subjects; FIG. 2c represents the transitions of the female subjects. FIGS. 3a to 3c indicates change rates (%) of the blood melatonin concentration up to 24 weeks when the nicotinamide mononucleotide was orally administered to the subjects for 24 weeks. FIG. 3a represents the change rates of the whole subjects; FIG. 3b represents the change rates of the male subjects; FIG. 3c represents the change rates of the female subjects. Further, Table 1 indicates the numerical values of the melatonin concentration (pg/ml) in the plasma before the ingestion of the nicotinamide mononucleotide (0 weeks) and after the ingestion of the nicotinamide mononucleotide (24 weeks). In addition, the numerical values represent mean values±standard deviation.

[2] = Safety observation in subjects after ingestion for 24 weeks (complaints, stool abnormality); assay type: in vivo, human; conditions: healthy males and females aged 50 to 70 years, oral
Procedure: as §1

[3] = Female, High Dose Group (200 mg/daily, oral)
[4] = Female, Low Dose Group (100 mg/daily, oral)
[5] = Male, High Dose Group (200 mg/daily, oral)
[6] = Male, Low Dose Group (100 mg/daily, oral)
[7] = Whole Subjects, High Dose Group (200 mg/daily, oral)
[8] = Whole Subjects, Low Dose Group (100 mg/daily, oral)

NC(=O)c1ccc[n+]([C@@H]2O[C@H](COP(=O)([O-])O)[C@@H](O)[C@H]2O)c1 [nicotinamide mononucleotide]
melatonin concentration in the plasma, 0 weeks (before ingestion) [1, 3]: 5.77 ± 3.00 pg/mL | melatonin concentration in the plasma, 24 weeks (after ingestion) [1, 3]: 11.81 ± 8.17 pg/mL | melatonin concentration in the plasma, Change rate (24 weeks - 0 weeks) [1, 3]: 6.03 ± 5.90 pg/mL | melatonin concentration in the plasma, 0 weeks (before ingestion) [1, 4]: 7.15 ± 4.51 pg/mL | melatonin concentration in the plasma, 24 weeks (after ingestion) [1, 4]: 9.37 ± 4.85 pg/mL | melatonin concentration in the plasma, Change rate (24 weeks - 0 weeks) [1, 4]: 2.21 ± 3.19 pg/mL | melatonin concentration in the plasma, 0 weeks (before ingestion) [1, 5]: 3.82 ± 1.41 pg/mL | melatonin concentration in the plasma, 24 weeks (after ingestion) [1, 5]: 6.68 ± 4.04 pg/mL | melatonin concentration in the plasma, Change rate (24 weeks - 0 weeks) [1, 5]: 2.86 ± 3.10 pg/mL | melatonin concentration in the plasma, 0 weeks (before ingestion) [1, 6]: 2.76 ± 1.71 pg/mL | melatonin concentration in the plasma, 24 weeks (after ingestion) [1, 6]: 6.20 ± 3.60 pg/mL | melatonin concentration in the plasma, Change rate (24 weeks - 0 weeks) [1, 6]: 3.44 ± 3.57 pg/mL | melatonin concentration in the plasma, 0 weeks (before ingestion) [1, 7]: 4.80 ± 2.44 pg/mL | melatonin concentration in the plasma, Change rate (24 weeks - 0 weeks) [1, 7]: 4.45 ± 4.75 pg/mL | melatonin concentration in the plasma, 0 weeks (before ingestion) [1, 8]: 4.96 ± 3.96 pg/mL | melatonin concentration in the plasma, 24 weeks (after ingestion) [1, 8]: 7.78 ± 4.36 pg/mL | melatonin concentration in the plasma, Change rate (24 weeks - 0 weeks) [1, 8]: 2.82 ± 3.26 pg/mL | melatonin concentrations in the plasma compared to before ingestion, statistical significance ([1]; as a whole, both the low dose group and the high dose group, p<0.05): a significant difference was observed | melatonin concentrations in plasma, effect of ingestion (in words) ([1]; oral, 100 or 200 mg/daily, 24 weeks, FIGS. 2a-2c, 3a-3c): increased | unidentified complaint (abdominal pain, nausea, vomiting, headache) or stool abnormality after the ingestion for 24 weeks ([2]; 100 mg and 200 mg/daily groups): did not show any unidentified complaint | unidentified complaint (abdominal pain, nausea, vomiting, headache) or stool abnormality after the ingestion for 24 weeks ([2]; 100 mg/daily): did not show any unidentified complaint | unidentified complaint (abdominal pain, nausea, vomiting, headache) or stool abnormality after the ingestion for 24 weeks ([2]; 200 mg/daily): did not show any unidentified complaint

Reference: patent US20220031596A1, “ANTI-AGING AGENT AND ANTI-AGING METHOD” (priority 2018, published 2022)
